In doi:10.1101/2024.08.25.609621 (bioRxiv, 2024):
Where two headings read alike, the source gives them in different places.

Molecular target: SARS-CoV-2 NSP3 macrodomain (Mac1), P43 crystal form (Severe acute respiratory syndrome coronavirus 2, UniProt P0DTD1)
Assay type: binding
Conditions: for Pandda run, overall: Hit / Pandda run, overall: Modeling comment / PanDDA run, DMSO background map: 1-BDC / PanDDA run, DMSO background map: Hit / PanDDA run, TFA/DMSO background map: 1-BDC / PanDDA run, TFA/DMSO background map: Hit / Pandda run, overall: Modeled: crystal soak 10 mM; for Pandda run, overall: Hit / Pandda run, overall: Modeling comment / Pandda run, overall: Modeled: P43 crystals; for 1-BDC: PanDDA background density correction; for Total number of conformations: ligand conformations modeled in Mac1 crystal structure; for X-ray crystallography: Binding site: site where the ligand is bound in the X-ray crystal structure; for X-ray crystal structure: X-ray crystal structure determined (TRUE); for Binding site: site of ligand in X-ray crystal structure
[1] = occupancy estimate from PanDDA 1-BDC

SMILES	Pandda run, overall: Hit	Pandda run, overall: Modeling comment	PanDDA run, DMSO background map: 1-BDC	PanDDA run, DMSO background map: Hit	PanDDA run, TFA/DMSO background map: 1-BDC	PanDDA run, TFA/DMSO background map: Hit	1-BDC	Pandda run, overall: Modeled	Total number of conformations	2*(1-BDC) (%) [1] [%]	X-ray crystallography: Binding site	X-ray crystal structure	Binding site	Occupancy difference (refined_occupancy - 2*(1-BDC))	Refined ligand occupancy (%)	2*(1-BDC) (%) (occupancy estimate from PanDDA BDC)	Refined TFA occupancy (%) (occupancy of TFA in the dataset of the named ligand)
O=C(O)C(F)(F)F.OC[C@@H](CCc1ccccc1)Nc1ncnc2[nH]ccc12 [AVI-3654]	TRUE	Weak density for phenyl, not modeled	0.14	TRUE	0.07	TRUE											
CC1CCN(c2ncnc3[nH]ccc23)C1CO (centres unmarked) [AVI-3655]	TRUE		0.21	TRUE			0.21	TRUE	1	42	Adenosine						
CO[C@@H]1C[C@H](CO)N(c2ncnc3[nH]ccc23)C1 [AVI-3656]	TRUE		0.26	TRUE			0.26	TRUE	1	52	Adenosine						
Cn1cc(CC(CO)Nc2ncnc3[nH]ccc23)cn1 (centres unmarked) [AVI-3657]	TRUE		0.15	TRUE			0.15	TRUE	1	30		TRUE	Adenosine				
OCC(CC1OCCO1)Nc1ncnc2[nH]ccc12 (centres unmarked) [AVI-3658]	TRUE		0.2	TRUE			0.2	TRUE	1	40		TRUE	Adenosine				
OCC(Nc1ncnc2[nH]ccc12)c1ccco1 (centres unmarked) [AVI-3659]	TRUE		0.16	TRUE			0.16	TRUE	1	32		TRUE	Adenosine				
OCC(CC1CCCO1)Nc1ncnc2[nH]ccc12 (centres unmarked) [AVI-3660]	TRUE		0.23	TRUE			0.23	TRUE	1	46		TRUE	Adenosine				
OC1CCN(c2ncnc3[nH]ccc23)C1 (centres unmarked) [AVI-3661]	TRUE		0.15	TRUE			0.15	TRUE	1		Adenosine			10	40	30	20
OCC(CC1CC1)Nc1ncnc2[nH]ccc12 (centres unmarked) [AVI-3662]	TRUE	Distal site, weak density, not modeled	0.14	TRUE			0.14	TRUE	1	28		TRUE	Adenosine				
OCC(CC1CCOC1)Nc1ncnc2[nH]ccc12 (centres unmarked) [AVI-3665]	TRUE		0.17	TRUE			0.17	TRUE	1	34		TRUE	Adenosine				
CCC(Nc1ncnc2[nH]ccc12)C(C)(C)O (centres unmarked) [AVI-3667]	TRUE		0.14	TRUE			0.14	TRUE	1	28		TRUE	Adenosine				
CC(C)CCC(CO)Nc1ncnc2[nH]ccc12.O=C(O)C(F)(F)F (centres unmarked) [AVI-3668]	TRUE	Weak density, not modeled	0.15	TRUE	0.09	TRUE											
OCC(Cc1nccs1)Nc1ncnc2[nH]ccc12 (centres unmarked) [AVI-3673]	TRUE		0.19	TRUE			0.19	TRUE	1	38		TRUE	Adenosine				
Cc1ccccc1CC(CO)Nc1ncnc2[nH]ccc12 (centres unmarked) [AVI-3674]	TRUE		0.19	TRUE			0.19	TRUE	1	38		TRUE	Adenosine				
O=C(O)C(F)(F)F.OCC(CC1CCOCC1)Nc1ncnc2[nH]ccc12 (centres unmarked) [AVI-3676]		TFA only															
OCC(Nc1ncnc2[nH]ccc12)C1CCOC1 (centres unmarked) [AVI-3679]	TRUE		0.16	TRUE			0.16	TRUE	1	32		TRUE	Adenosine				
O=C(O)C(F)(F)F.OCC12CC(CN1c1ncnc3[nH]ccc13)C2 [AVI-3681]	TRUE	Distal site, weak density, not modeled	0.22	TRUE			0.22	TRUE	1	44	Adenosine						
Cc1ccc(CC(CO)Nc2ncnc3[nH]ccc23)cc1 (centres unmarked) [AVI-3683]	TRUE		0.15	TRUE			0.15	TRUE	2	30		TRUE	Adenosine				
Cc1ccc(CC(CO)Nc2ncnc3[nH]ccc23)cc1C (centres unmarked) [AVI-3684]	TRUE		0.15	TRUE			0.15	TRUE	2	30		TRUE	Adenosine				
